Values quoted from earlier work in patent US20050277626A1, “Methods and compositions for treatment of nicotine dependence and dementias” (priority 2004, published 2005).

Assays:
[1] = schizophrenic patients
[2] = 400 mg per day

COc1cc2c(cc1OC)C(=O)C(CC1CCN(Cc3ccccc3)CC1)C2 (stereo not shown) [donepazil]
cognitive effect, blinded placebo controlled study [1]: no effect | cognitive effect, open label studies [1]: modest cognitive improvements

COc1ccc2c3c1O[C@H]1C[C@@H](O)C=C[C@@]31CCN(C)C2 [galantamine]
apoptosis induced by beta-amyloid and thapsigargin (neuroblastoma cell lines): inhibit apoptosis induced by beta-amyloid and thapsigargin in a concentration dependent manner

O=C(NCCN1CCOCC1)c1ccc(Cl)cc1 [moclobemide]
efficacy for smoking cessation [2]: demonstrated efficacy
